Data reported in ChEMBL document CHEMBL1201862, “PubChem BioAssay data set” (2004).
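Cultured in 96-well plates, cells were exposed to test compound for 48 hours across five concentrations. The concentration for 50% growth inhibition is given as GI50.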 The source made the active and inactive calls. Rule as the data show it: active = GI50 up to about 1.1 µM and inactive = higher.

How the values were obtained:
Assay in all cases: inhibition of tumour cell growth, NCI panel, 48 h
OVCAR-8 = test system: OVCAR-8
NCI/ADR-RES = test system: NCI/ADR-RES
SR = test system: SR
M14 = test system: M14
SF-268 = test system: SF-268
A549 = test system: A549
SK-MEL-2 = test system: SK-MEL-2
MDA-MB-231 = test system: MDA-MB-231
PC-3 = test system: PC-3
MCF7 = test system: MCF7
NCI-H23 = test system: NCI-H23
HCT-116 = test system: HCT-116
SK-MEL-28 = test system: SK-MEL-28
RPMI-8226 = test system: RPMI-8226
NCI-H522 = test system: NCI-H522
OVCAR-3 = test system: OVCAR-3
SF-539 = test system: SF-539
SNB-19 = test system: SNB-19
COLO 205 = test system: COLO 205
T47D = test system: T47D
K562 = test system: K562
OVCAR-5 = test system: OVCAR-5
MDA-N = test system: MDA-N
DU-145 = test system: DU-145
CAKI-1 = test system: CAKI-1
786-0 = test system: 786-0
HCT-15 = test system: HCT-15
TK-10 = test system: TK-10
SK-MEL-5 = test system: SK-MEL-5
SW-620 = test system: SW-620
A498 = test system: A498
SN12C = test system: SN12C
MDA-MB-435 = test system: MDA-MB-435
Malme-3M = test system: Malme-3M
UO-31 = test system: UO-31
OVCAR-4 = test system: OVCAR-4
RXF 393 = test system: RXF 393
UACC-62 = test system: UACC-62
U-251 = test system: U-251
ACHN = test system: ACHN
SK-OV-3 = test system: SK-OV-3
HOP-62 = test system: HOP-62
KM12 = test system: KM12
MOLT-4 = test system: MOLT-4
UACC-257 = test system: UACC-257
CCRF-CEM = test system: CCRF-CEM
IGROV-1 = test system: IGROV-1
LOX IMVI = test system: LOX IMVI
NCI-H460 = test system: NCI-H460
NCI-H226 = test system: NCI-H226
SF-295 = test system: SF-295
HT-29 = test system: HT-29
HL-60 = test system: HL-60
EKVX = test system: EKVX
HCC 2998 = test system: HCC 2998
SNB-75 = test system: SNB-75
HOP-92 = test system: HOP-92

N#CC1=C(Nc2ccccc2)SC=C(c2ccccc2)N=C1NCc1ccccc1
GI50 (OVCAR-8): > 100 µM (inactive) | GI50 (NCI/ADR-RES): > 100 µM (inactive) | GI50 (SR): 0.984 µM (active) | GI50 (M14): > 100 µM (inactive) | GI50 (SF-268): > 100 µM (inactive) | GI50 (A549): > 100 µM (inactive) | GI50 (SK-MEL-2): > 100 µM (inactive) | GI50 (MDA-MB-231): > 100 µM (inactive) | GI50 (PC-3): > 100 µM (inactive) | GI50 (MCF7): > 100 µM (inactive) | GI50 (NCI-H23): > 100 µM (inactive) | GI50 (HCT-116): > 100 µM (inactive) | GI50 (SK-MEL-28): > 100 µM (inactive) | GI50 (RPMI-8226): 18.7 µM (inactive) | GI50 (NCI-H522): 53.8 µM (inactive) | GI50 (OVCAR-3): > 100 µM (inactive) | GI50 (SF-539): > 100 µM (inactive) | GI50 (SNB-19): > 100 µM (inactive) | GI50 (COLO 205): 65.5 µM (inactive) | GI50 (T47D): > 100 µM (inactive) | GI50 (K562): 24.9 µM (inactive) | GI50 (OVCAR-5): > 100 µM (inactive) | GI50 (MDA-N): > 100 µM (inactive) | GI50 (DU-145): > 100 µM (inactive) | GI50 (CAKI-1): > 100 µM (inactive) | GI50 (786-0): > 100 µM (inactive) | GI50 (HCT-15): > 100 µM | GI50 (TK-10): > 100 µM (inactive) | GI50 (SK-MEL-5): 54.5 µM (inactive) | GI50 (SW-620): > 100 µM (inactive) | GI50 (A498): > 100 µM (inactive) | GI50 (SN12C): > 100 µM (inactive) | GI50 (MDA-MB-435): > 100 µM (inactive) | GI50 (Malme-3M): > 100 µM (inactive) | GI50 (UO-31): 71 µM (inactive) | GI50 (OVCAR-4): > 100 µM (inactive) | GI50 (RXF 393): > 100 µM (inactive) | GI50 (UACC-62): > 100 µM (inactive) | GI50 (U-251): > 100 µM (inactive) | GI50 (ACHN): > 100 µM (inactive) | GI50 (SK-OV-3): > 100 µM (inactive) | GI50 (HOP-62): > 100 µM (inactive) | GI50 (KM12): > 100 µM (inactive) | GI50 (MOLT-4): 72.6 µM (inactive)

O=C(O)CCC(NC(=O)c1ccc(OCc2nc3cc(C(F)(F)F)ccc3nc2-c2ccccc2)cc1)C(=O)O (stereo not drawn)
GI50 (OVCAR-8): > 100 µM (inactive) | GI50 (UACC-257): > 100 µM (inactive) | GI50 (CCRF-CEM): > 100 µM (inactive) | GI50 (NCI/ADR-RES): > 100 µM (inactive) | GI50 (IGROV-1): > 100 µM (inactive) | GI50 (SR): 9.31 µM (inactive) | GI50 (M14): > 100 µM (inactive) | GI50 (SF-268): > 100 µM (inactive) | GI50 (A549): > 100 µM (inactive) | GI50 (SK-MEL-2): > 100 µM (inactive) | GI50 (MDA-MB-231): > 100 µM (inactive) | GI50 (LOX IMVI): > 100 µM (inactive) | GI50 (NCI-H460): > 100 µM (inactive) | GI50 (PC-3): > 100 µM (inactive) | GI50 (NCI-H226): > 100 µM (inactive) | GI50 (MCF7): > 100 µM (inactive) | GI50 (SF-295): > 100 µM (inactive) | GI50 (NCI-H23): > 100 µM (inactive) | GI50 (HCT-116): > 100 µM (inactive) | GI50 (HT-29): > 100 µM (inactive) | GI50 (HL-60): > 100 µM (inactive) | GI50 (SK-MEL-28): > 100 µM (inactive) | GI50 (NCI-H522): > 100 µM (inactive) | GI50 (OVCAR-3): > 100 µM (inactive) | GI50 (SF-539): > 100 µM (inactive) | GI50 (SNB-19): > 100 µM (inactive) | GI50 (COLO 205): > 100 µM (inactive) | GI50 (EKVX): > 100 µM (inactive) | GI50 (T47D): > 100 µM (inactive) | GI50 (K562): > 100 µM (inactive) | GI50 (OVCAR-5): > 100 µM (inactive) | GI50 (HCC 2998): > 100 µM (inactive) | GI50 (DU-145): > 100 µM (inactive) | GI50 (CAKI-1): 45.4 µM (inactive) | GI50 (786-0): > 100 µM (inactive) | GI50 (SNB-75): > 100 µM (inactive) | GI50 (HCT-15): > 100 µM | GI50 (TK-10): > 100 µM (inactive) | GI50 (HOP-92): > 100 µM (inactive) | GI50 (SW-620): > 100 µM (inactive) | GI50 (A498): > 100 µM (inactive) | GI50 (SN12C): > 100 µM (inactive) | GI50 (MDA-MB-435): > 100 µM (inactive) | GI50 (Malme-3M): > 100 µM (inactive) | GI50 (UO-31): > 100 µM (inactive) | GI50 (OVCAR-4): > 100 µM (inactive) | GI50 (RXF 393): > 100 µM (inactive) | GI50 (UACC-62): > 100 µM (inactive) | GI50 (U-251): > 100 µM (inactive) | GI50 (ACHN): > 100 µM (inactive) | GI50 (SK-OV-3): > 100 µM (inactive) | GI50 (HOP-62): > 100 µM (inactive) | GI50 (KM12): > 100 µM (inactive) | GI50 (MOLT-4): > 100 µM (inactive)

CN(C)C1COC2Cc3ccccc3C1O2 (stereo not drawn)
GI50 (OVCAR-8): > 100 µM (inactive) | GI50 (SR): > 100 µM (inactive) | GI50 (M14): > 100 µM (inactive) | GI50 (SF-268): > 100 µM (inactive) | GI50 (A549): > 100 µM (inactive) | GI50 (LOX IMVI): > 100 µM (inactive) | GI50 (SF-295): > 100 µM (inactive) | GI50 (NCI-H23): > 100 µM (inactive) | GI50 (HCT-116): > 100 µM (inactive) | GI50 (HT-29): > 100 µM (inactive) | GI50 (K562): > 100 µM (inactive) | GI50 (OVCAR-5): > 100 µM (inactive) | GI50 (CAKI-1): > 100 µM (inactive) | GI50 (HCT-15): > 100 µM | GI50 (TK-10): > 100 µM (inactive) | GI50 (HOP-92): > 100 µM (inactive) | GI50 (SN12C): > 100 µM (inactive) | GI50 (OVCAR-4): > 100 µM (inactive) | GI50 (RXF 393): > 100 µM (inactive) | GI50 (ACHN): > 100 µM (inactive) | GI50 (SK-OV-3): > 100 µM (inactive)

COc1ccc(/C=N/Nc2nc3ccccc3c(=O)n2-c2ccccc2)c(OCc2ccccc2)c1
GI50 (OVCAR-8): > 100 µM (inactive) | GI50 (UACC-257): > 100 µM (inactive) | GI50 (CCRF-CEM): > 100 µM (inactive) | GI50 (NCI/ADR-RES): > 100 µM (inactive) | GI50 (IGROV-1): > 100 µM (inactive) | GI50 (SR): > 100 µM (inactive) | GI50 (M14): 83.9 µM (inactive) | GI50 (SF-268): > 100 µM (inactive) | GI50 (A549): > 100 µM (inactive) | GI50 (SK-MEL-2): 0.0656 µM (active) | GI50 (MDA-MB-231): 88.7 µM (inactive) | GI50 (LOX IMVI): > 100 µM (inactive) | GI50 (NCI-H460): > 100 µM (inactive) | GI50 (PC-3): 35.6 µM (inactive) | GI50 (NCI-H226): > 100 µM (inactive) | GI50 (MCF7): 0.226 µM (active) | GI50 (SF-295): > 100 µM (inactive) | GI50 (NCI-H23): > 100 µM (inactive) | GI50 (HCT-116): > 100 µM (inactive) | GI50 (HT-29): > 100 µM (inactive) | GI50 (HL-60): > 100 µM (inactive) | GI50 (SK-MEL-28): > 100 µM (inactive) | GI50 (NCI-H522): > 100 µM (inactive) | GI50 (OVCAR-3): > 100 µM (inactive) | GI50 (SF-539): 14.5 µM (inactive) | GI50 (SNB-19): > 100 µM (inactive) | GI50 (COLO 205): > 100 µM (inactive) | GI50 (EKVX): 33.9 µM (inactive) | GI50 (T47D): > 100 µM (inactive) | GI50 (K562): > 100 µM (inactive) | GI50 (OVCAR-5): > 100 µM (inactive) | GI50 (HCC 2998): > 100 µM (inactive) | GI50 (DU-145): > 100 µM (inactive) | GI50 (CAKI-1): 34.8 µM (inactive) | GI50 (786-0): > 100 µM (inactive) | GI50 (HCT-15): > 100 µM | GI50 (TK-10): > 100 µM (inactive) | GI50 (HOP-92): 19.3 µM (inactive) | GI50 (SK-MEL-5): > 100 µM (inactive) | GI50 (SW-620): > 100 µM (inactive) | GI50 (A498): > 100 µM (inactive) | GI50 (SN12C): > 100 µM (inactive) | GI50 (MDA-MB-435): > 100 µM (inactive) | GI50 (Malme-3M): > 100 µM (inactive) | GI50 (UO-31): > 100 µM (inactive) | GI50 (OVCAR-4): > 100 µM (inactive) | GI50 (RXF 393): > 100 µM (inactive) | GI50 (UACC-62): 70.6 µM (inactive) | GI50 (U-251): > 100 µM (inactive) | GI50 (ACHN): > 100 µM (inactive) | GI50 (SK-OV-3): > 100 µM (inactive) | GI50 (HOP-62): > 100 µM (inactive) | GI50 (KM12): > 100 µM (inactive) | GI50 (MOLT-4): > 100 µM (inactive)
